How the values were obtained:
[1] = target: EthR-VP16 (Mycobacterium bovis, UniProt Q7TVI1); assay: cell-based; parameters: species or system M. bovis; settings: 48 h, read-out: % EthR activity (w/o = 100%); ± std. dev. of the mean (n = 3)
[2] = tested on: Mycobacterium tuberculosis laboratory strain H37Rv; assay: Growth inhibition / drug susceptibility testing of M. tuberculosis with MGIT 960 system, compounds combined with ethionamide; assay type: cell-based; parameters: key to growth inhibition of M. tuberculosis H37Rv (R/I/S): R: Resistance, no effect of combinatorial drug application; I: intermediate; S: sensitive; settings: for growth inhibitory effect of compound alone on M. tuberculosis H37Rv: without ethionamide; for growth of M. tuberculosis H37Rv in the presence of sub-inhibitory ethionamide concentrations: ethionamide 0.16 and 5 μg/ml, 0.5 to 40.5 μMol compound
[3] = Example compound 0.5 μM + ethionamide 0.16 μg/ml
[4] = Example compound 0.5 μM + ethionamide 0.31 μg/ml
[5] = Example compound 0.5 μM + ethionamide 0.625 μg/ml
[6] = Example compound 0.5 μM + ethionamide 1.25 μg/ml
[7] = Example compound 0.5 μM + ethionamide 2.5 μg/ml
[8] = Example compound 0.5 μM + ethionamide 5 μg/ml
[9] = Example compound 0.5 μM, ethionamide 0 μg/ml
[10] = Example compound 1.5 μM + ethionamide 0.16 μg/ml
[11] = Example compound 1.5 μM + ethionamide 0.31 μg/ml
[12] = Example compound 1.5 μM + ethionamide 0.625 μg/ml
[13] = Example compound 1.5 μM + ethionamide 1.25 μg/ml
[14] = Example compound 1.5 μM + ethionamide 2.5 μg/ml
[15] = Example compound 1.5 μM + ethionamide 5 μg/ml
[16] = Example compound 1.5 μM, ethionamide 0 μg/ml
[17] = Example compound 4.5 μM + ethionamide 0.16 μg/ml
[18] = Example compound 4.5 μM + ethionamide 0.31 μg/ml
[19] = Example compound 4.5 μM + ethionamide 0.625 μg/ml
[20] = Example compound 4.5 μM + ethionamide 1.25 μg/ml
[21] = Example compound 4.5 μM + ethionamide 2.5 μg/ml
[22] = Example compound 4.5 μM + ethionamide 5 μg/ml
[23] = Example compound 4.5 μM, ethionamide 0 μg/ml
[24] = Example compound 13.5 μM + ethionamide 0.16 μg/ml
[25] = Example compound 13.5 μM + ethionamide 0.31 μg/ml
[26] = Example compound 13.5 μM + ethionamide 0.625 μg/ml
[27] = Example compound 13.5 μM + ethionamide 1.25 μg/ml
[28] = Example compound 13.5 μM + ethionamide 2.5 μg/ml
[29] = Example compound 13.5 μM + ethionamide 5 μg/ml
[30] = Example compound 13.5 μM, ethionamide 0 μg/ml
[31] = Example compound 40.5 μM + ethionamide 0.16 μg/ml
[32] = Example compound 40.5 μM + ethionamide 0.31 μg/ml
[33] = Example compound 40.5 μM + ethionamide 0.625 μg/ml
[34] = Example compound 40.5 μM + ethionamide 1.25 μg/ml
[35] = Example compound 40.5 μM + ethionamide 2.5 μg/ml
[36] = Example compound 40.5 μM + ethionamide 5 μg/ml
[37] = Example compound 40.5 μM, ethionamide 0 μg/ml

Chain of EthR-VP16 (Q7TVI1 whole entry, looked up): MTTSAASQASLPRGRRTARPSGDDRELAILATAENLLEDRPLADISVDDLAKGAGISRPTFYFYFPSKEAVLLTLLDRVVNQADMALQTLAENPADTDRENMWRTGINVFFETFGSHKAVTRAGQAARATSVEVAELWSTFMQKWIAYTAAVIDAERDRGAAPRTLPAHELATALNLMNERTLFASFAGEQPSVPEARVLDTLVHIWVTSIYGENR

Q: For `O=C(CCc1ccccc1)N1CCC(c2ccccc2)C1` (stereo not drawn) [Example 16, 3-Phenyl-1-(3-phenylpyrrolidin-1-yl)propan-1-one], which remaining activity at 0.5 µM [1] is on record?
A: Its remaining activity at 0.5 µM is 28.3 ± 1.26%.

Q: And the remaining activity at 1.5 µM [1]?
A: Its remaining activity at 1.5 µM is 27.2 ± 0.46%.

Q: And the remaining activity at 3 µM [1]?
A: The remaining activity at 3 µM was 19.9 ± 0.43%.

Q: What about the remaining activity at 6 µM [1] of the same compound?
A: The remaining activity at 6 µM was 13.5 ± 2.96%.

Q: What about the remaining activity at 15 µM [1] of the same compound?
A: The remaining activity at 15 µM was 11.8 ± 2.6%.

Q: What about the remaining activity at 30 µM [1] of the same compound?
A: Its remaining activity at 30 µM is 11.4 ± 2.51%.

Q: What about the remaining activity at 60 µM [1] of the same compound?
A: The remaining activity at 60 µM was 2.82 ± 0.62%.

Q: And the remaining activity at 300 µM [1]?
A: The remaining activity at 300 µM was 0.85 ± 0.18%.

Q: What about the “growth inhibition of M. tuberculosis H37Rv (R/I/S)” value (from here on “growth inhibition”) [2, 3] of the same compound?
A: Its value is “R”.

Q: What about the “growth inhibition” value [2, 4] of the same compound?
A: Its value is “R”.

Q: What about the “growth inhibition” value [2, 5] of the same compound?
A: The value was “I”.

Q: And the “growth inhibition” value [2, 6]?
A: The value was “S”.

Q: And the “growth inhibition” value [2, 7]?
A: The value was “S”.

Q: What about the “growth inhibition” value [2, 8] of the same compound?
A: Its value is “S”.

Q: What about the “growth inhibition” value [2, 9] of the same compound?
A: The value was “R”.

Q: What about the “growth inhibition” value [2, 10] of the same compound?
A: Its value is “R”.

Q: And the “growth inhibition” value [2, 11]?
A: Its value is “I”.

Q: What about the “growth inhibition” value [2, 12] of the same compound?
A: The value was “S”.

Q: And the “growth inhibition” value [2, 13]?
A: Its value is “S”.

Q: And the “growth inhibition” value [2, 14]?
A: Its value is “S”.

Q: And the “growth inhibition” value [2, 15]?
A: Its value is “S”.

Q: What about the “growth inhibition” value [2, 16] of the same compound?
A: Its value is “R”.

Q: And the “growth inhibition” value [2, 17]?
A: Its value is “R”.

Q: And the “growth inhibition” value [2, 18]?
A: Its value is “I”.

Q: And the “growth inhibition” value [2, 19]?
A: Its value is “S”.

Q: And the “growth inhibition” value [2, 20]?
A: Its value is “S”.

Q: And the “growth inhibition” value [2, 21]?
A: Its value is “S”.

Q: What about the “growth inhibition” value [2, 22] of the same compound?
A: Its value is “S”.

Q: And the “growth inhibition” value [2, 23]?
A: The value was “R”.

Q: And the “growth inhibition” value [2, 24]?
A: Its value is “I”.

Q: And the “growth inhibition” value [2, 25]?
A: The value was “S”.

Q: And the “growth inhibition” value [2, 26]?
A: Its value is “S”.

Q: What about the “growth inhibition” value [2, 27] of the same compound?
A: The value was “S”.

Q: What about the “growth inhibition” value [2, 28] of the same compound?
A: The value was “S”.

Q: And the “growth inhibition” value [2, 29]?
A: Its value is “S”.

Q: What about the “growth inhibition” value [2, 30] of the same compound?
A: Its value is “R”.

Q: And the “growth inhibition” value [2, 31]?
A: Its value is “I”.

Q: And the “growth inhibition” value [2, 32]?
A: Its value is “I”.

Q: And the “growth inhibition” value [2, 33]?
A: The value was “S”.

Q: What about the “growth inhibition” value [2, 34] of the same compound?
A: The value was “S”.

Q: And the “growth inhibition” value [2, 35]?
A: The value was “S”.

Q: What about the “growth inhibition” value [2, 36] of the same compound?
A: The value was “S”.

Q: And the “growth inhibition” value [2, 37]?
A: Its value is “R”.

Q: And the “growth inhibitory effect of compound alone on M. tuberculosis H37Rv” value [2]?
A: Its value is “do not show any growth inhibitory effect”.

Q: And the “growth of M. tuberculosis H37Rv in the presence of sub-inhibitory ethionamide concentrations” value [2]?
A: Its value is “dose-dependently inhibited”.

Q: `O=C(Cc1ccccc1)N1CCC(c2ccccc2)C1` (stereo not drawn) [Example 17, 2-Phenyl-1-(3-phenylpyrrolidin-1-yl)ethan-1-one] was tested. Which remaining activity at 0.5 µM [1] did it give?
A: Its remaining activity at 0.5 µM is 38.5 ± 8.47%.

Q: And the remaining activity at 1.5 µM [1]?
A: Its remaining activity at 1.5 µM is 35.5 ± 7.81%.

Q: What about the remaining activity at 3 µM [1] of the same compound?
A: Its remaining activity at 3 µM is 22.5 ± 4.94%.

Q: And the remaining activity at 6 µM [1]?
A: The remaining activity at 6 µM was 16.3 ± 3.58%.

Q: What about the remaining activity at 15 µM [1] of the same compound?
A: The remaining activity at 15 µM was 14.2 ± 3.13%.

Q: And the remaining activity at 30 µM [1]?
A: Its remaining activity at 30 µM is 11.5 ± 8.52%.

Q: What about the remaining activity at 60 µM [1] of the same compound?
A: Its remaining activity at 60 µM is 1.86 ± 0.4%.

Q: And the remaining activity at 300 µM [1]?
A: The remaining activity at 300 µM was 0.83 ± 0.18%.

Q: And the “growth inhibition” value [2, 3]?
A: Its value is “R”.

Q: What about the “growth inhibition” value [2, 4] of the same compound?
A: The value was “R”.

Q: What about the “growth inhibition” value [2, 5] of the same compound?
A: The value was “R”.

Q: What about the “growth inhibition” value [2, 6] of the same compound?
A: The value was “R”.

Q: What about the “growth inhibition” value [2, 7] of the same compound?
A: Its value is “I”.

Q: And the “growth inhibition” value [2, 8]?
A: The value was “S”.

Q: What about the “growth inhibition” value [2, 9] of the same compound?
A: The value was “R”.

Q: What about the “growth inhibition” value [2, 10] of the same compound?
A: The value was “R”.

Q: And the “growth inhibition” value [2, 11]?
A: The value was “R”.

Q: What about the “growth inhibition” value [2, 12] of the same compound?
A: Its value is “R”.

Q: And the “growth inhibition” value [2, 13]?
A: The value was “I”.

Q: What about the “growth inhibition” value [2, 14] of the same compound?
A: Its value is “S”.

Q: And the “growth inhibition” value [2, 15]?
A: The value was “S”.

Q: And the “growth inhibition” value [2, 16]?
A: The value was “R”.

Q: What about the “growth inhibition” value [2, 17] of the same compound?
A: Its value is “R”.

Q: What about the “growth inhibition” value [2, 18] of the same compound?
A: The value was “R”.

Q: What about the “growth inhibition” value [2, 19] of the same compound?
A: The value was “R”.

Q: What about the “growth inhibition” value [2, 20] of the same compound?
A: The value was “I”.

Q: And the “growth inhibition” value [2, 21]?
A: The value was “S”.

Q: What about the “growth inhibition” value [2, 22] of the same compound?
A: The value was “S”.

Q: And the “growth inhibition” value [2, 23]?
A: Its value is “R”.

Q: What about the “growth inhibition” value [2, 24] of the same compound?
A: Its value is “R”.

Q: What about the “growth inhibition” value [2, 25] of the same compound?
A: The value was “R”.

Q: And the “growth inhibition” value [2, 26]?
A: The value was “I”.

Q: What about the “growth inhibition” value [2, 27] of the same compound?
A: The value was “I”.

Q: What about the “growth inhibition” value [2, 28] of the same compound?
A: The value was “S”.

Q: What about the “growth inhibition” value [2, 29] of the same compound?
A: The value was “S”.

Q: And the “growth inhibition” value [2, 30]?
A: The value was “R”.

Q: What about the “growth inhibition” value [2, 31] of the same compound?
A: The value was “R”.

Q: What about the “growth inhibition” value [2, 32] of the same compound?
A: The value was “R”.

Q: What about the “growth inhibition” value [2, 33] of the same compound?
A: Its value is “S”.

Q: What about the “growth inhibition” value [2, 34] of the same compound?
A: Its value is “S”.

Q: And the “growth inhibition” value [2, 35]?
A: The value was “S”.

Q: What about the “growth inhibition” value [2, 36] of the same compound?
A: The value was “S”.

Q: What about the “growth inhibition” value [2, 37] of the same compound?
A: Its value is “R”.

Q: What about the “growth inhibitory effect of compound alone on M. tuberculosis H37Rv” value [2] of the same compound?
A: Its value is “do not show any growth inhibitory effect”.

Q: What about the “growth of M. tuberculosis H37Rv in the presence of sub-inhibitory ethionamide concentrations” value [2] of the same compound?
A: The value was “dose-dependently inhibited”.

Source: US8912329B2 (priority 2009, dated 2014)
